Measured values published in patent publication US20020137929A1, “1 - (3-heterocyclylphenyl) isothiourea, -isourea, -guanidine and -amidine herbicidal agents” (Intellectual Property Department, BASF Aktiengesellschaft, priority 1998, published 2002).

What was measured:
ZEAMX (Corn, Field) = assay: Preemergence herbicidal evaluation; type: in vivo, Zea mays; conditions: rated 4-5 weeks after treatment
In short: (§1)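 Steps: mix seeds into potting soil; plant atop ~1 inch soil; spray compound in aqueous acetone (~0.0156-0.500 kg/ha equivalent); maintain in greenhouse with watering; rate visually 0-9 versus control at 4-5 weeks.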

[1] = system: TRZAWR (Wheat, Winter, cv Riband); assay: Preemergence herbicidal evaluation; type: in vivo, Triticum aestivum; conditions: rated 4-5 weeks after treatment
In short: as §1

[2] = system: ECHORC (Watergrass (Calif.)); assay: Preemergence weed control under flooded paddy conditions; type: in vivo, Echinochloa oryzoides; conditions: rated 3-4 weeks after treatment
In short: (§2)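 First, seeds or propagules go into the top 0.5 cm of silt loam; next, water is held 1.5 to 3 cm over the soil; then compound (50/50 acetone/water) is pipetted into it at about 0.0313 to 0.500 kg/ha; finally plants are rated visually 0-9 after three to four weeks.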

CYPIR (Rice Flatsedge) [3] = assay: Postemergence weed control under flooded paddy conditions; type: in vivo, Cyperus iria; conditions: postemergence weeds, 3-4 weeks after treatment
In short: (§3)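 Injury ratings (0–9 scale covering stand, vigor, malformation, size, chlorosis and overall appearance versus control) were made three to four weeks after treatment. Test material, about 0.0313 to 0.500 kg/ha a.i. in 50/50 v/v aqueous/acetone, was added to flood water 1.5 to 3 cm deep over 3 to 5 cm weeds and 1.5 to 2.5 leaf rice.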

[4] = system: SAGPY (Arrowhead (Pygmaea)); assay: as above; type: in vivo, Sagittaria pygmaea; conditions: postemergence weeds, 3-4 weeks after treatment
In short: as §3

CYPIR (Rice Flatsedge) [5] = assay: Preemergence weed control under flooded paddy conditions; type: in vivo, Cyperus iria; conditions: rated 3-4 weeks after treatment
In short: as §2

ORYSAT (Rice, Tebonnet) = assay: Postemergence herbicidal evaluation; type: in vivo, Oryza sativa, (L.) Tebonnet; conditions: postemergence
In short: (§4)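 Visual 0–9 rating versus control (stand, vigor, malformation, size, chlorosis, overall appearance), taken four to five weeks post-spray. Two-week-old seedlings received roughly 0.0156–0.500 kg/ha active in acetone/water (50/50) with 0.5% TWEEN 20 via nozzle at 40 psi.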

CYPSE (Flatsedge) = assay: Postemergence weed control under flooded paddy conditions; type: in vivo, Cyperus serotinus; conditions: postemergence weeds, 3-4 weeks after treatment
In short: as §3

MOOVA (Monochoria) = assay: Preemergence weed control under flooded paddy conditions; type: in vivo, Monochoria vaginalis; conditions: rated 3-4 weeks after treatment
In short: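 Silt loam, seeds in top 0.5 cm; flood held 1.5-3 cm; test cpd as acetone/water 50/50 into flood water, ~0.0313-0.500 kg/ha a.i.; greenhouse 3-4 wk; visual 0-9 score vs control.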

ECHCG (Barnyardgrass) = assay: Postemergence herbicidal evaluation; type: in vivo, Echinochloa crus-galli; conditions: postemergence
In short: as §4

SETVI (Foxtail, Green) = assay: Postemergence herbicidal evaluation; type: in vivo, Setaria viridis; conditions: postemergence
In short: as §4

GALAP (Galium) = assay: Postemergence herbicidal evaluation; type: in vivo, Galium aparine; conditions: postemergence
In short: as §4

ABUTH (Velvetleaf) = assay: Postemergence herbicidal evaluation; type: in vivo, Abutilon theophrasti; conditions: postemergence
In short: as §4

`CN1C(=O)CSC1=Nc1cc(N2C(=O)C3=C(CCCC3)C2=O)c(F)cc1Cl` [Compound 1, N-{4-chloro-2-fluoro-5-[(3-methyl-4-oxo-2-thiazolidinylidene)amino]phenyl}-1-cyclohexene-1,2-dicarboximide] was tested, and the “ZEAMX preemergence herbicidal rating” value (ZEAMX (Corn, Field); rate 0.0313 kg/ha) was 0.0, the “ZEAMX preemergence herbicidal rating” value (ZEAMX (Corn, Field); rate 0.0625 kg/ha) was 0.0 and the “ZEAMX preemergence herbicidal rating” value (ZEAMX (Corn, Field); rate 0.1250 kg/ha) was 0.0. The “ZEAMX preemergence herbicidal rating” value (ZEAMX (Corn, Field); rate 0.2500 kg/ha) was 0.0, the “ZEAMX preemergence herbicidal rating” value (ZEAMX (Corn, Field); rate 0.5000 kg/ha) was 2.0 and the “TRZAWR preemergence herbicidal rating” value ([1]; rate 0.0313 kg/ha) was 2.0. The “TRZAWR preemergence herbicidal rating” value ([1]; rate 0.0625 kg/ha) was 4.0, the “TRZAWR preemergence herbicidal rating” value ([1]; rate 0.1250 kg/ha) was 3.0 and the “TRZAWR preemergence herbicidal rating” value ([1]; rate 0.2500 kg/ha) was 6.0. For the same compound, the “TRZAWR preemergence herbicidal rating” value ([1]; rate 0.5000 kg/ha) was 6.0, the “Herbicidal rating ECHORC” value ([2]; 0.0313 kg/ha) was 2.0 and the “Herbicidal rating ECHORC” value ([2]; 0.0625 kg/ha) was 4.0. For the same compound, the “Herbicidal rating ECHORC” value ([2]; 0.1250 kg/ha) was 6.0, the “Herbicidal rating ECHORC” value ([2]; 0.2500 kg/ha) was 7.0 and the “Herbicidal rating ECHORC” value ([2]; 0.5000 kg/ha) was 9.0. For the same compound, the “Herbicidal rating CYPIR” value (CYPIR (Rice Flatsedge) [3]; rate 0.0313 kg/ha) was 1.0, the “Herbicidal rating CYPIR” value (CYPIR (Rice Flatsedge) [3]; rate 0.0625 kg/ha) was 3.5 and the “Herbicidal rating CYPIR” value (CYPIR (Rice Flatsedge) [3]; rate 0.1250 kg/ha) was 5.5. The “Herbicidal rating CYPIR” value (CYPIR (Rice Flatsedge) [3]; rate 0.2500 kg/ha) was 6.5, the “Herbicidal rating CYPIR” value (CYPIR (Rice Flatsedge) [3]; rate 0.5000 kg/ha) was 8.5 and the “Herbicidal rating SAGPY” value ([4]; rate 0.0313 kg/ha) was 0.0. For the same compound, the “Herbicidal rating SAGPY” value ([4]; rate 0.0625 kg/ha) was 0.0, the “Herbicidal rating SAGPY” value ([4]; rate 0.1250 kg/ha) was 0.0 and the “Herbicidal rating SAGPY” value ([4]; rate 0.2500 kg/ha) was 0.0. For the same compound, the “Herbicidal rating SAGPY” value ([4]; rate 0.5000 kg/ha) was 0.0, the “Herbicidal rating CYPIR” value (CYPIR (Rice Flatsedge) [5]; 0.0313 kg/ha) was 2.0 and the “Herbicidal rating CYPIR” value (CYPIR (Rice Flatsedge) [5]; 0.0625 kg/ha) was 7.0. The “Herbicidal rating CYPIR” value (CYPIR (Rice Flatsedge) [5]; 0.1250 kg/ha) was 9.0, the “Herbicidal rating CYPIR” value (CYPIR (Rice Flatsedge) [5]; 0.2500 kg/ha) was 9.0 and the “Herbicidal rating CYPIR” value (CYPIR (Rice Flatsedge) [5]; 0.5000 kg/ha) was 9.0. It also gave an ORYSAT herbicidal rating (ORYSAT (Rice, Tebonnet); rate 0.0157 kg/ha) of 1.0, an ORYSAT herbicidal rating (ORYSAT (Rice, Tebonnet); rate 0.0313 kg/ha) of 1.5 and an ORYSAT herbicidal rating (ORYSAT (Rice, Tebonnet); rate 0.0625 kg/ha) of 3.0. The ORYSAT herbicidal rating (ORYSAT (Rice, Tebonnet); rate 0.1250 kg/ha) was 3.5, the ORYSAT herbicidal rating (ORYSAT (Rice, Tebonnet); rate 0.2500 kg/ha) was 5.5 and the ORYSAT herbicidal rating (ORYSAT (Rice, Tebonnet); rate 0.5000 kg/ha) was 5.5. For the same compound, the “Herbicidal rating CYPSE” value (CYPSE (Flatsedge); rate 0.0313 kg/ha) was 0.0, the “Herbicidal rating CYPSE” value (CYPSE (Flatsedge); rate 0.0625 kg/ha) was 0.0 and the “Herbicidal rating CYPSE” value (CYPSE (Flatsedge); rate 0.1250 kg/ha) was 0.0. The “Herbicidal rating CYPSE” value (CYPSE (Flatsedge); rate 0.2500 kg/ha) was 1.0, the “Herbicidal rating CYPSE” value (CYPSE (Flatsedge); rate 0.5000 kg/ha) was 4.0 and the “Herbicidal rating MOOVA” value (MOOVA (Monochoria); 0.0313 kg/ha) was 8.0. The “Herbicidal rating MOOVA” value (MOOVA (Monochoria); 0.0625 kg/ha) was 9.0, the “Herbicidal rating MOOVA” value (MOOVA (Monochoria); 0.1250 kg/ha) was 9.0 and the “Herbicidal rating MOOVA” value (MOOVA (Monochoria); 0.2500 kg/ha) was 9.0. For the same compound, the “Herbicidal rating MOOVA” value (MOOVA (Monochoria); 0.5000 kg/ha) was 9.0, the ECHCG herbicidal rating (ECHCG (Barnyardgrass); rate 0.0157 kg/ha) was 0.0 and the ECHCG herbicidal rating (ECHCG (Barnyardgrass); rate 0.0313 kg/ha) was 0.0. The ECHCG herbicidal rating (ECHCG (Barnyardgrass); rate 0.0625 kg/ha) was 2.0, the ECHCG herbicidal rating (ECHCG (Barnyardgrass); rate 0.1250 kg/ha) was 2.0 and the ECHCG herbicidal rating (ECHCG (Barnyardgrass); rate 0.2500 kg/ha) was 5.0. It also gave an ECHCG herbicidal rating (ECHCG (Barnyardgrass); rate 0.5000 kg/ha) of 7.0, an SETVI herbicidal rating (SETVI (Foxtail, Green); rate 0.0157 kg/ha) of 1.0 and an SETVI herbicidal rating (SETVI (Foxtail, Green); rate 0.0313 kg/ha) of 3.0. The SETVI herbicidal rating (SETVI (Foxtail, Green); rate 0.0625 kg/ha) was 4.0, the SETVI herbicidal rating (SETVI (Foxtail, Green); rate 0.1250 kg/ha) was 7.0 and the SETVI herbicidal rating (SETVI (Foxtail, Green); rate 0.2500 kg/ha) was 7.0. It also gave an SETVI herbicidal rating (SETVI (Foxtail, Green); rate 0.5000 kg/ha) of 9.0, a GALAP herbicidal rating (GALAP (Galium); rate 0.0157 kg/ha) of 4.0 and a GALAP herbicidal rating (GALAP (Galium); rate 0.0313 kg/ha) of 6.0. For the same compound, the GALAP herbicidal rating (GALAP (Galium); rate 0.0625 kg/ha) was 6.0, the GALAP herbicidal rating (GALAP (Galium); rate 0.1250 kg/ha) was 8.0 and the GALAP herbicidal rating (GALAP (Galium); rate 0.2500 kg/ha) was 9.0. For the same compound, the GALAP herbicidal rating (GALAP (Galium); rate 0.5000 kg/ha) was 9.0, the ABUTH herbicidal rating (ABUTH (Velvetleaf); rate 0.0157 kg/ha) was 5.0 and the ABUTH herbicidal rating (ABUTH (Velvetleaf); rate 0.0313 kg/ha) was 8.0. For the same compound, the ABUTH herbicidal rating (ABUTH (Velvetleaf); rate 0.0625 kg/ha) was 8.0, the ABUTH herbicidal rating (ABUTH (Velvetleaf); rate 0.1250 kg/ha) was 9.0 and the ABUTH herbicidal rating (ABUTH (Velvetleaf); rate 0.2500 kg/ha) was 9.0. It also gave an ABUTH herbicidal rating (ABUTH (Velvetleaf); rate 0.5000 kg/ha) of 9.0.
